Values of other authors, collected in patent publication US20200390726A1, “Compositions for Improved Neuroprotective Effects and Methods of Making Same” (Guardion Health Sciences, LLC, priority 2019, published 2020).

Tested on: glaucoma patients
Settings: literature, anthocyanins 50 mg daily, PEA 600 mg per day, Mirtogenol dose not given

In the case of CCCCCCCCCCCCCCCC(=O)NCCO [PEA, Palmitoylethanolamide], the “effect on visual field” value (citicoline 500 to 1,000 mg daily) is listed as “improvement in the visual field” and the “effect on intraocular pressure (IOP)” value (forskolin 1% eye drops) is listed as “lowering of IOP”.
